Results: patent US8906884B2, “Method of treating graft-rejection using dextran sulfate” (TX Medic AB, priority 2002, dated 2014)
Where two headings read alike, the source gives them in different places.

Experiments:
[1] = system: porcine islets transplanted into diabetic athymic mice
Method: (§1) After being cultured for 4 days, 5 μl of API (˜5000 IEQs) from five isolations were transplanted into the liver via the portal vein of 11 male inbred diabetic athymic mice, which were anesthetized during surgery with isoflurene. […] Six (untreated) mice were injected with an equivalent volume of saline in the same manner.
(§2) Islets were sectioned and subsequently stained with horseradish peroxidase (HRP) conjugated mouse anti-human CD41a (R&D Systems, Abigdon, UK) and anti-CD11b^+ (Clone 2LPM 19c, DAKO, Carpinteria, Calif., USA). In the in vivo study, the API-containing mouse livers were retrieved 10 days after transplantation and snap-frozen in isopentane. The samples were sectioned and stained with guinea pig anti-insulin (DAKA, Carpinteria, Calif., USA) and rat anti-mouse CD11b^+ (Serotec Ltd. Scandinavia, Oslo, Norway).

[2] = system: IBMIR triggered by API in fresh human blood
Method: (§3) This protocol is basically performed as previously described with some modifications. In general words, loops made of PVC (diameter 6.3 mm, length 390 mm), whose inner surface was furnished with immobilized heparin, were used. The tubing was held together with a specially designed heparinized connector. A circular loop was formed when the ends of the connector were tightly pushed into the lumen of the tubing ends. A rocking apparatus, placed in a 37° C. incubator, was used to generate blood flow inside the loops. The loops were rocked at a setting that prevented the blood from coming in contact with the connectors.
(§4) Seven 60-min islet experiments were performed, using API isolated from four different pigs. […] For each experiment, one loop containing fresh human blood and saline without API was included as a control. […] Concurrently, pre-incubation of human blood with 1 mg/ml of LMW-dextran, which was not sulfated, was tested in five experiments. In each experiment, 7 ml of fresh human blood from the same donor was added to each loop. […] Thereafter, the loops were opened, and 100 μl of saline with or without 5 μl of API (approximately 5,000 IEQ) was added to the loops and followed by another 60-min incubation on the rocking device at 37° C. Blood glucose levels were measured with a glucometer (Glucometer Elite; Bayer Diagnostics, Leverkusen, Germany) before the perfusion.
After every perfusion, the loop contents were filtered through 70 μm-diameter filters (Filcons, Cuptype; DAKO, Denmark). Both macroscopic blood clots and tissue recovered on the filters were snap-frozen in isopentane for immunohistochemical staining. The remaining filtered blood was collected in 4.1 mM EDTA (final concentration) and used for hematological analysis (platelets, lymphocytes, monocytes, and granulocytes) and assays of coagulation activation (thrombin-antithrombin [TAT], factor XIa-antithrombin complexes [FXIa-AT], and factor XIIa-antithrombin complexes [FXIIa-AT]), fibrinolysis activation (plasmin-alpha 2 antiplasmin complexes [PAP]), complement activation (C3a and sC5b-9), and C1 esterase inhibitor activation (factor XIa-C1 esterase inhibitor [FXIa-C1 INH], factor XIIa-C1 esterase inhibitor [FXIIa-C1 INH]). Samples taken at 0, 15, and 30 min were also analyzed. In 0-min samples, the blood was not added to the tubing loop but was instead transferred immediately to the EDTA-containing tubes. The blood samples were centrifuged at 4° C. at 3290×g for 20 min, and the plasma was collected and stored at −70° C. until analyzed.
Platelet counts and differential leukocyte counts were analyzed on a Coulter ACT-diff analyzer (Beckman Coulter, Fla., USA) using EDTA-treated blood. TAT and PAP were quantified using commercially available enzyme immunoassays (EIA) kits (Enzygnost TAT, Behringswerke, Marburg, Germany; Imuclone® PAP, American Diagnostica Inc., Greenwich, USA). FXIa-AT, FXIIa-AT, FXIa-C1 INH, and FXIIa-C1 INH were analyzed according to the method of Sanchez et al.. C3a was analyzed as previously described by Nilsson Ekdahl et al., and sC5b-9 was analyzed using a modification of the EIA described by Mollnes et al..

[3] = system: API graft in diabetic athymic mice; conditions: implantation site liver, i.v. treatment, n = 5; duration of normoglycemia
Method: Diabetes was induced in athymic mice by intravenous (i.v.) injection of steptozotocin from Sigma Chemicals (Palo Alto, Calif., USA) according to Wennberg et al.. The steptozotocin dose was 250 mg/kg body weight for the athymic mice. An animal was considered diabetic if its blood glucose (B-glucose) level exceeded 20 mmol/l (>360 mg/dl) for 2 or more consecutive days.
as §1
Blood glucose levels were measured in blood obtained from tails of recipients using a Glucometer Elite® B-glucose measuring instrument (Bayer AB, Gothenburg, Sweden). Measurements were taken daily before 12 am and expressed as mmol/l (1 mmol/l≈18 mg/dl). Loss of graft function was considered to have occurred if B-glucose levels exceeded 11.1 mmol/l (>200 mg/dl) for 2 or more consecutive days. Post-transplant duration of normoglycemia (<200 mg/dl) was defined as the graft survival period.

[4] = system: porcine islets perfused with human blood
Method: as §3, §4, §2

[5] = Table 4 comparison, 60 min API perfusion, 1 mg/ml, n = 5
[6] = after 60 min perfusion, API with 0.01 mg/ml, n = 7
[7] = after 60 min perfusion, API with 0.1 mg/ml, n = 7
[8] = after 60 min perfusion, API with 1 mg/ml, n = 7

Low molecular weight dextran sulfate [LMW-DS]
Frequency of clot formation and intensity of leukocyte infiltration versus untreated recipients ([1]; p=0.034, in words): significantly lower
Islets entrapped in clots ([1]; treated mice, FIG. 9, in words): only a few islets
Infiltrating CD11b+ (MAC-1+) cells ([1]; treated mice, FIG. 11, in words): markedly fewer
Generation of C3a ([2]; 0.01 mg/ml, FIG. 1, in words): significantly reduces
Coagulation activation products TAT, FXIa-AT and FXIIa-AT ([2]; 0.01 mg/ml, in words): suppressed
PAP ([2]; 0.01 mg/ml, in words): significantly suppressed
Generation of C3a and membrane attack complex sC5b-9 ([2]; 0.1 mg/ml and 1 mg/ml, FIGS. 1 and 2, in words): totally inhibits
C3a [2, 5]: 171.5 ± 72.4 ng/mL
FXIa-AT [2, 5]: 1.56 ± 0.82 µmol/L
Granulocytes (×10^9/l) [2, 5]: 3.23 ± 0.21 ×10^9/l
Lymphocytes (×10^9/l) [2, 5]: 1.94 ± 0.12 ×10^9/l
Monocytes (×10^9/l) [2, 5]: 0.38 ± 0.10 ×10^9/l
Platelets (×10^9/l) [2, 5]: 181.1 ± 16.3 ×10^9/l
TAT [2, 5]: 12.8 ± 4.9 µg/mL
sC5b-9 (AU/ml) [2, 5]: 41.6 ± 11.5 AU/ml
C3a [2, 6]: 630.6 ± 103.4 ng/mL
FXIIa-AT [2, 6]: 0.08 ± 0.02 µmol/L
FXIIa-C1 inh [2, 6]: 0.10 ± 0.03 µmol/mL
FXIa-AT [2, 6]: 0.13 ± 0.01 µmol/L
Granulocytes (×10^9/l) [2, 6]: 2.20 ± 0.40 ×10^9/l
Lymphocytes (×10^9/l) [2, 6]: 1.90 ± 0.11 ×10^9/l
Monocytes (×10^9/l) [2, 6]: 0.48 ± 0.10 ×10^9/l
PAP [2, 6]: 398.2 ± 60.7 ng/mL
Platelets (×10^9/l) [2, 6]: 108.2 ± 12.9 ×10^9/l
TAT [2, 6]: 645.3 ± 177.4 µg/mL
sC5b-9 (AU/ml) [2, 6]: 151.4 ± 27.9 AU/ml
C3a [2, 7]: 191.7 ± 36.6 ng/mL
FXIa-AT [2, 7]: 0.08 ± 0.01 µmol/L
Granulocytes (×10^9/l) [2, 7]: 2.80 ± 0.50 ×10^9/l
Lymphocytes (×10^9/l) [2, 7]: 1.91 ± 0.12 ×10^9/l
Monocytes (×10^9/l) [2, 7]: 0.40 ± 0.07 ×10^9/l
Platelets (×10^9/l) [2, 7]: 146.1 ± 8.1 ×10^9/l
TAT [2, 7]: 61.0 ± 8.6 µg/mL
sC5b-9 (AU/ml) [2, 7]: 61.9 ± 6.5 AU/ml
C3a [2, 8]: 215.6 ± 52.2 ng/mL
FXIa-AT [2, 8]: 1.17 ± 0.41 µmol/L
Granulocytes (×10^9/l) [2, 8]: 2.92 ± 0.37 ×10^9/l
Lymphocytes (×10^9/l) [2, 8]: 1.89 ± 0.10 ×10^9/l
Monocytes (×10^9/l) [2, 8]: 0.31 ± 0.05 ×10^9/l
Platelets (×10^9/l) [2, 8]: 162.3 ± 8.9 ×10^9/l
TAT [2, 8]: 15.0 ± 5.6 µg/mL
sC5b-9 (AU/ml) [2, 8]: 53.9 ± 7.1 AU/ml
Coagulation and complement activation ([2]; dose-dependent, in words): reduced
Blood cell consumption ([2]; in words): inhibited
Macroscopic clotting ([2]; in words): prevented
FXIIa-C1 INH ([2]; presence or absence of LMW-DS, in words): did not change
Mean graft survival [3]: 8.8 ± 1.9 days
Number of infiltrating CD11b+ cells ([4]; 1 mg/ml, 60 min, FIG. 5, in words): decreased considerably
Clot formation around islets ([4]; 1 mg/ml, 60 min, in words): complete inhibition
Layer of platelets adhering to the islets ([4]; FIG. 7, in words): much thinner layer
